Experimental data as given in patent US9376442B2, “Methylpyrrolopyrimidinecarboxamides” (Takeda GmbH, priority 2009, dated 2016).

Tests used:
[1] = molecular target: T1, PDE5A1 (Homo sapiens, UniProt O76074); experiment: Inhibition of type 5 phosphodiesterase (PDE5) activity, modified SPA test with human platelet lysate; format: biochemical; settings: 0.5 μM cGMP, read-out: PDE5A1 inhibitory values [measured as −log IC50 (mol/l)] (converted)
T1 construct: from tissue; host or cells: human platelets from fresh donor blood (10,000 x g supernatant of sonicated lysate)
How it was run: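 Enzyme source is lysate from human platelets (10,000 g supernatant). Compound preincubated 5 min at 37° C in Tris pH 7.4 containing 1 μM motapizone and 10 nM of a PDE2 inhibitor. Reaction started with 0.5 μM cGMP ([3H] tracer) and run 15 min; SPA read-out, IC50 by non-linear regression.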

[2] = molecular target: T2, PDE4B1 (Homo sapiens, UniProt Q07343); experiment: Inhibition of type 4 phosphodiesterase (PDE4) activity, modified SPA test with recombinant PDE4B1 expressed in SF21 insect cells; format: biochemical; settings: recombinant PDE4B1, 0.5 μM cAMP, read-out: PDE4B1 inhibitory values [measured as −log IC50 (mol/l)] (converted)
T2 construct: made in house; host or cells: SF21 insect cells (baculovirus; pCRBac vector), 1000 x g supernatant of homogenate
Protocol: Method for Measuring Inhibition of the Type 4 Phosphodiesterase (PDE4) Activity:
The PDE4B1 (GB no. L20966) was a gift of Prof. M. Conti (Stanford University, USA). It was amplified from the original plasmid (pCMV5) via PCR with primers Rb18 (5′-[…]-3′) and Rb10 (5′-[…]-3′) and cloned into the pCRBac vector (Invitrogen, Groningen, NL).
The recombinant baculovirus was prepared by means of homologous recombination in SF9 insect cells. The expression plasmids were cotransfected with Baculo-Gold DNA (Pharmingen, Hamburg) using a standard protocol (Pharmingen, Hamburg). Wt virus-free recombinant virus supernatants were selected using plaque assay methods. After that, high-titre virus supernatants were prepared by amplifying 3 times. PDE4B1 was expressed in SF21 cells by infecting 2×10^6 cells/ml with an MOI (multiplicity of infection) between 1 and 10 in the serum-free medium Insect Express Sf9-S2 (PAA, Pasching, Austria). The cells were cultured at 28° C. for 48-72 hours, after which they were pelleted for 5-10 min at 1000×g and 4° C.
The SF21 insect cells were resuspended, at a concentration of approx. 10^7 cells/ml, in ice-cold (4° C.) homogenization buffer (20 mM Tris, pH 8.2, containing the following additions: 140 mM NaCl, 3.8 mM KCl, 1 mM EGTA, 1 mM MgCl2, 10 mM (3-mercaptoethanol, 2 mM benzamidine, 0.4 mM Pefablock, 10 μM leupeptin, 10 μM pepstatin A, 5 μM trypsin inhibitor) and disrupted by ultrasonication. The homogenate was then centrifuged for 10 min at 1000×g and the supernatant was stored at −80° C. until subsequent use (see below). The protein content was determined by the Bradford method (BioRad, Munich) using BSA as the standard.
PDE4B1 activity was inhibited by the compounds according to the present subject matter in a modified SPA (scintillation proximity assay) test, supplied by Amersham Biosciences (see procedural instructions “phosphodiesterase [3H]cAMP SPA enzyme assay, code TRKQ 7090”), carried out in 96-well microtitre plates (MTP's). The test volume is 100 μl and contains 20 mM Tris buffer (pH 7.4), 0.1 mg/ml of BSA, 5 mM Mg^2+, 0.5 μM cAMP (including about 50,000 cpm of [3H]cAMP), 1 μl of the respective substance dilution in DMSO and sufficient recombinant PDE (1000×g supernatant, see above) to ensure that 10-20% of the cAMP is converted under the said experimental conditions. […] After a preincubation of 5 min at 37° C., the reaction is started by adding the substrate (cAMP) and the assays are incubated for a further 15 min; after that, they are stopped by adding SPA beads (50 μl). In accordance with the manufacturer's instructions, the SPA beads had previously been resuspended in water, but were then diluted 1:3 (v/v) in water; the diluted solution also contains 3 mM IBMX to ensure a complete PDE activity stop. After the beads have been sedimented (>30 min), the MTP's are analyzed in commercially available luminescence detection devices. The corresponding IC50 values of the compounds for the inhibition of PDE4B1 activity are determined from the concentration-effect curves by means of non-linear regression.

T2 sequence (Q07343 whole entry): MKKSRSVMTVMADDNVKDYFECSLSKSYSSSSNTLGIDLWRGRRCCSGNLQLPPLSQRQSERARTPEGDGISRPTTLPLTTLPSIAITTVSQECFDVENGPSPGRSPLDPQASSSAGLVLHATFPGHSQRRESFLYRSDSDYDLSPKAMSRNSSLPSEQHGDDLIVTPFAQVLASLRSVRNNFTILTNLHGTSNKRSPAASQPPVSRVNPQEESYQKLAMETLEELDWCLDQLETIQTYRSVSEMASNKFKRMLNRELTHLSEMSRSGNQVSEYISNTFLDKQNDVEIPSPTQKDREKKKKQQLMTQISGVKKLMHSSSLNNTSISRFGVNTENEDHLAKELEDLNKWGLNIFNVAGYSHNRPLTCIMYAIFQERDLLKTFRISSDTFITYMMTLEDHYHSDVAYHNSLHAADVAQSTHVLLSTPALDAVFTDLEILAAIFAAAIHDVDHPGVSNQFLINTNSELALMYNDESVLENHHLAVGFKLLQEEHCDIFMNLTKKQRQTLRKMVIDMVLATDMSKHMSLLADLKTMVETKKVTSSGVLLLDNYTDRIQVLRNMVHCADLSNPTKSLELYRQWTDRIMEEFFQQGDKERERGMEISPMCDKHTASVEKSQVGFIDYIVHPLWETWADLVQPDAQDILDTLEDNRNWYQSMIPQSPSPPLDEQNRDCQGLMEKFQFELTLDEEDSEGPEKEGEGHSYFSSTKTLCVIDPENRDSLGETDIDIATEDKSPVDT

Structure (SMILES) | IC50 [1] [nM] | IC50 [2] [nM]
CCC(=O)N1CCC(NC(=O)c2c(C)[nH]c3c(-c4cc(C)ccc4OCC4CC4)nc(C)nc23)CC1 [Example E170, 4-[2-(Cyclopropylmethoxy)-5-methylphenyl]-2,6-dimethyl-N-(1-propanoylpiperidin-4-yl)-5H-pyrrolo[3,2-d]pyrimidine-7-carboxamide] | < 1 | 100 to 1000
CCC(=O)N[C@H]1CC[C@@H](NC(=O)c2c(C)[nH]c3c(-c4cc(CC)ccc4OCC4CC4)ncnc23)CC1 [Example E152, 4-[2-(Cyclopropylmethoxy)-5-ethylphenyl]-6-methyl-N-[cis-4-(propanoylamino)cyclohexyl]-5H-pyrrolo[3,2-d]pyrimidine-7-carboxamide] | < 1 | 100 to 1000
CC(=O)N1CCC(NC(=O)c2c(C)[nH]c3c(-c4cc(C(C)C)ccc4OCC4CC4)ncnc23)CC1 [Example E157, N-(1-Acetylpiperidin-4-yl)-4-[2-(cyclopropylmethoxy)-5-(propan-2-yl)phenyl]-6-methyl-5H-pyrrolo[3,2-d]pyrimidine-7-carboxamide] | < 1 | 100 to 1000
CCc1ccc(OCC2CC2)c(-c2ncnc3c(C(=O)N[C@@H]4CN(C(C)=O)C[C@H]4O)c(C)[nH]c23)c1 (relative stereo) [Example E154, N-[(3R*,4R*)-1-Acetyl-4-hydroxypyrrolidin-3-yl]-4-[2-(cyclopropylmethoxy)-5-ethylphenyl]-6-methyl-5H-pyrrolo[3,2-d]pyrimidine-7-carboxamide] | 1 to 10 | 100 to 1000
CCC(=O)N1C[C@@H](O)[C@H](NC(=O)c2c(C)[nH]c3c(-c4cc(CC)ccc4OCC4CC4)ncnc23)C1 (relative stereo) [Example E155, 4-[2-(Cyclopropylmethoxy)-5-ethylphenyl]-N-[(3R*,4R*)-4-hydroxy-1-propanoylpyrrolidin-3-yl]-6-methyl-5H-pyrrolo[3,2-d]pyrimidine-7-carboxamide] | < 1 | 100 to 1000
CCc1ccc(OCC2CC2)c(-c2ncnc3c(C(=O)NC4CCN(C(=O)COC)CC4)c(C)[nH]c23)c1 [Example E147, 4-[2-(Cyclopropylmethoxy)-5-ethylphenyl]-N-[1-(methoxyacetyl)piperidin-4-yl]-6-methyl-5H-pyrrolo[3,2-d]pyrimidine-7-carboxamide] | < 1 | 100 to 1000
COCC(=O)N1CCC(NC(=O)c2c(C)[nH]c3c(-c4cc(OC)ccc4OCC4CC4)ncnc23)CC1 [Example E68, 4-[2-(Cyclopropylmethoxy)-5-methoxyphenyl]-N-[1-(methoxyacetyl)piperidin-4-yl]-6-methyl-5H-pyrrolo[3,2-d]pyrimidine-7-carboxamide] | < 1 | 100 to 1000
CC(=O)N[C@H]1CC[C@H](NC(=O)c2c(C)[nH]c3c(-c4cc(C(F)(F)F)ccc4OCC4CC4)ncnc23)CC1 [Example E93, N-[trans-4-(acetylamino)cyclohexyl]-4-[2-(cyclopropylmethoxy)-5-(trifluoromethyl)phenyl]-6-methyl-5H-pyrrolo[3,2-d]pyrimidine-7-carboxamide] | < 1 | < 100
CCc1ccc(OCC2CC2)c(-c2ncnc3c(C(=O)N[C@H]4CC[C@H](NC(=O)COC)CC4)c(C)[nH]c23)c1 [Example E150, 4-[2-(Cyclopropylmethoxy)-5-ethylphenyl]-N-{trans-4-[(methoxyacetyl)amino]cyclohexyl}-6-methyl-5H-pyrrolo[3,2-d]pyrimidine-7-carboxamide] | < 1 | < 100

Further lines, results first:

IC50 [1] [nM] | IC50 [2] [nM] | Structure (SMILES)
< 1 | < 100 | COCC(=O)N[C@H]1CC[C@H](NC(=O)c2c(C)[nH]c3c(-c4cc(C(F)F)ccc4OCC4CC4)ncnc23)C[C@H]1F (relative stereo) [Example P201, 4-[2-(Cyclopropylmethoxy)-5-(difluoromethyl)phenyl]-N-{(1S*,3R*,4S*)-3-fluoro-4-[(methoxyacetyl)amino]cyclohexyl}-6-methyl-5H-pyrrolo[3,2-d]pyrimidine-7-carboxamide]
< 1 | < 100 | Cc1[nH]c2c(-c3cc(F)ccc3OCC3CC3)ncnc2c1C(=O)N[C@H]1CC[C@H](NC(=O)[C@H](C)O)CC1 [Example F26, 4-[2-(Cyclopropylmethoxy)-5-fluorophenyl]-N-(trans-4-{[(2S)-2-hydroxypropanoyl]amino}cyclohexyl)-6-methyl-5H-pyrrolo[3,2-d]pyrimidine-7-carboxamide]
< 1 | < 100 | Cc1ccc(OCC2CC2)c(-c2ncnc3c(C(=O)NC4CCN(C(=O)CO)CC4)c(C)[nH]c23)c1 [Example F51]
< 1 | < 100 | CCC(=O)N[C@H]1CC[C@H](NC(=O)c2c(C)[nH]c3c(-c4cc(C(F)F)ccc4OCC4CC4)ncnc23)C[C@H]1F (relative stereo) [Example P200, 4-[2-(Cyclopropylmethoxy)-5-(difluoromethyl)phenyl]-N-[(1S*,3R*,4S*)-3-fluoro-4-(propanoylamino)cyclohexyl]-6-methyl-5H-pyrrolo[3,2-d]pyrimidine-7-carboxamide]
< 1 | < 100 | Cc1[nH]c2c(-c3cc(C(F)(F)F)ccc3OCC3CC3)ncnc2c1C(=O)NC1CCN(C(=O)CO)CC1 [Example F57, 4-[2-(Cyclopropylmethoxy)-5-(trifluoromethyl)phenyl]-N-[1-(hydroxyacetyl)piperidin-4-yl]-6-methyl-5H-pyrrolo[3,2-d]pyrimidine-7-carboxamide]
< 1 | < 100 | CCc1ccc(OCC2CC2)c(-c2ncnc3c(C(=O)N[C@H]4CC[C@@H](NC(=O)CO)CC4)c(C)[nH]c23)c1 [Example F95, 4-[2-(Cyclopropylmethoxy)-5-ethylphenyl]-N-{cis-4-[(hydroxyacetyl)amino]cyclohexyl}-6-methyl-5H-pyrrolo[3,2-d]pyrimidine-7-carboxamide]
< 1 | < 100 | CCC(=O)N[C@H]1CC[C@H](NC(=O)c2c(C)[nH]c3c(-c4cc(C(F)F)ccc4OCC4CC4)ncnc23)[C@@H](C)C1 (relative stereo) [Example P140, 4-[2-(Cyclopropylmethoxy)-5-(difluoromethyl)phenyl]-6-methyl-N-[(1S*,2S*,4S*)-2-methyl-4-(propanoylamino)cyclohexyl]-5H-pyrrolo[3,2-d]pyrimidine-7-carboxamide]
< 1 | < 100 | CCC(=O)N1CCC(NC(=O)c2c(C)[nH]c3c(-c4cc(C(F)F)ccc4OCC4CC4)ncnc23)CC1 [Example P2, 4-[2-(Cyclopropylmethoxy)-5-(difluoromethyl)phenyl]-6-methyl-N-(1-propanoylpiperidin-4-yl)-5H-pyrrolo[3,2-d]pyrimidine-7-carboxamide]
< 1 | < 100 | Cc1[nH]c2c(-c3cc(C(F)(F)F)ccc3OCC3CC3)ncnc2c1C(=O)N[C@H]1CC[C@@H](NC(=O)[C@H](C)O)CC1 [Example F62, 4-[2-(Cyclopropylmethoxy)-5-(trifluoromethyl)phenyl]-N-(cis-4-{[(2S)-2-hydroxypropanoyl]amino}cyclohexyl)-6-methyl-5H-pyrrolo[3,2-d]pyrimidine-7-carboxamide]
